Columns and labels:
[1] = tested on: SK-MEL2 human tumor cells that were transfected with a plasmid containing the murine VEGF gene; assay: Matrigel Angiogenesis Model (hemoglobin content of Matrigel pellets); assay type: in vivo, Mice; conditions: vs. vehicle control animals, 12 days post-implantation
Procedure: Preparation of Matrigel Plugs and in vivo Phase: Matrigel® (Collaborative Biomedical Products, Bedford, MA) is a basement membrane extract from a murine tumor composed primarily of laminin, collagen IV and heparan sulfate proteoglycan. It is provided as a sterile liquid at 4° C, but rapidly forms a solid gel at 37° C.
Liquid Matrigel at 4° C was mixed with SK-MEL2 human tumor cells that were transfected with a plasmid containing the murine VEGF gene with a selectable marker. Tumor cells were grown in vitro under selection and cells were mixed with cold liquid Matrigel at a ratio of 2 X 10^6 per 0.5 ml. […]
Optical densities were determined spectrophotometrically at 600 nm in a 96-well plate reader, SpectraMax 250 Microplate Spectrophotometer System (Molecular Devices, Sunnyvale, CA). Background Lysis Buffer readings were subtracted from all wells.
Total sample hemoglobin content was calculated according to the following equation: Total Hemoglobin = (Sample Lysate Volume) × (Hemoglobin Concentration) [formula]
The average Total Hemoglobin of Matrigel samples without cells was subtracted from each Total Hemoglobin Matrigel sample with cells. Percent inhibition was calculated according to the following equation: % Inhibition = ((Average Total Hemoglobin Drug-Treated Tumor Lysates) × 100)/((Average Total Hemoglobin Non-Treated Tumor Lysates)) [formula] […]

[2] = target: T1, NIH3T3 cells expressing the full length KDR receptor (Homo sapiens, UniProt P35968); assay: Cell mechanistic assay - Inhibition of 3T3 KDR phosphorylation; assay type: cell-based; conditions: VEGF (30 ng / ml) stimulated KDR phosphorylation in NIH3T3 cells, 30 minutes preincubation
T1 construct: NIH3T3 cells expressing the full length KDR receptor; expressed in transfected cells; host or cells: NIH3T3 cells (G418 selection)
Procedure: NIH3T3 cells expressing the full length KDR receptor were grown in DMEM (Life Technologies, Inc., Grand Island, NY) supplemented with 10% newborn calf serum, low glucose, 25 mM /L sodium pyruvate, pyridoxine hydrochloride and 0.2 mg/ ml of G418 (Life Technologies Inc., Grand Island, NY). The cells were maintained in collagen I-coated T75 flasks (Becton Dickinson Labware, Bedford, MA) in a humidified 5% CO2 atmosphere at 37°C.
Fifteen thousand cells were plated into each well of a collagen 1-coated 96-well plate in the DMEM growth medium. Six hours later, the cells were washed and the medium was replaced with DMEM without serum. After overnight culture to quiesce the cells, the medium was replaced by Dulbecco's phosphate-buffered saline (Life Technologies Inc., Grand Island, NY) with 0.1 % bovine albumin (Sigma Chemical Co., St Louis, MO). After adding various concentrations (0-300 nM) of test compounds to the cells in 1% final concentration of DMSO, the cells were incubated at room temperature for 30 minutes. The cells were then treated with VEGF (30 ng / ml) for 10 minutes at room temperature. Following VEGF stimulation, the buffer was removed and the cells were lysed by addition of 150 µl of extraction buffer (50 mM Tris, pH 7.8, supplemented with 10% glycerol, 50 mM BGP, 2 mM EDTA, 10 mM NaF, 0.5 mM NaVO4, and 0.3% TX-100) at 4°C for 30 minutes.
To assess receptor phosphorylation, 100 microliters of each cell lysate was added to the wells of an ELISA plate precoated with 300 ng of antibody C20 (Santa Cruz Biotechnology, Inc., Santa Cruz , CA). Following a 60-minute incubation, the plate was washed and bound KDR was probed for phosphotyrosine using an anti-phosphotyrosine mAb clone 4G10 (Upstate Biotechnology, Lake Placid, NY). The plate was washed and wells were incubated with anti-mouse IgG/HRP conjugate (Amersham International plc, Buckinghamshire, England) for 60 minutes. Wells were washed and phosphotyrosine was quantitated by addition of 100 µl per well of 3,3',5,5' tetramethylbenzidine (Kirkegaard and Perry, TMB Microwell 1 Component peroxidase substrate) solution. Color development was arrested by the addition of 100 µl 1% HCl based stop solution (Kirkegaard and Perry, TMB 1 Component Stop Solution).
Optical densities (OD) were determined spectrophotometrically at 450 nm in a 96-well plate reader (SpectraMax 250, Molecular Devices). Background (no VEGF added) OD values were subtracted from all ODs and percent inhibition was calculated according to the equation: % Inhibition = ((OD(VEGF control)-OD(with test compound)) × 100)/(OD(VEGF control)-OD(no VEGF added)) [formula]
IC50s were determined on some of the exemplary materials with a least squares analysis program using compound concentration versus percent inhibition. Compounds that have IC50 ≤ 20 nM in this assay include those of Examples 2, 6, 10, 11, 14, 23, 96, 101, 102, 103, 104, 105. Compounds that have IC50 values between 20 nM and 50 nM include those of examples 1, 4, 8, 9, 12, 13, 17, 24, 93, 98. Compounds that have IC50 values between 50 nM and 400 nM include those of examples 97, 99, and 100.

T1 sequence (P35968 20-1356): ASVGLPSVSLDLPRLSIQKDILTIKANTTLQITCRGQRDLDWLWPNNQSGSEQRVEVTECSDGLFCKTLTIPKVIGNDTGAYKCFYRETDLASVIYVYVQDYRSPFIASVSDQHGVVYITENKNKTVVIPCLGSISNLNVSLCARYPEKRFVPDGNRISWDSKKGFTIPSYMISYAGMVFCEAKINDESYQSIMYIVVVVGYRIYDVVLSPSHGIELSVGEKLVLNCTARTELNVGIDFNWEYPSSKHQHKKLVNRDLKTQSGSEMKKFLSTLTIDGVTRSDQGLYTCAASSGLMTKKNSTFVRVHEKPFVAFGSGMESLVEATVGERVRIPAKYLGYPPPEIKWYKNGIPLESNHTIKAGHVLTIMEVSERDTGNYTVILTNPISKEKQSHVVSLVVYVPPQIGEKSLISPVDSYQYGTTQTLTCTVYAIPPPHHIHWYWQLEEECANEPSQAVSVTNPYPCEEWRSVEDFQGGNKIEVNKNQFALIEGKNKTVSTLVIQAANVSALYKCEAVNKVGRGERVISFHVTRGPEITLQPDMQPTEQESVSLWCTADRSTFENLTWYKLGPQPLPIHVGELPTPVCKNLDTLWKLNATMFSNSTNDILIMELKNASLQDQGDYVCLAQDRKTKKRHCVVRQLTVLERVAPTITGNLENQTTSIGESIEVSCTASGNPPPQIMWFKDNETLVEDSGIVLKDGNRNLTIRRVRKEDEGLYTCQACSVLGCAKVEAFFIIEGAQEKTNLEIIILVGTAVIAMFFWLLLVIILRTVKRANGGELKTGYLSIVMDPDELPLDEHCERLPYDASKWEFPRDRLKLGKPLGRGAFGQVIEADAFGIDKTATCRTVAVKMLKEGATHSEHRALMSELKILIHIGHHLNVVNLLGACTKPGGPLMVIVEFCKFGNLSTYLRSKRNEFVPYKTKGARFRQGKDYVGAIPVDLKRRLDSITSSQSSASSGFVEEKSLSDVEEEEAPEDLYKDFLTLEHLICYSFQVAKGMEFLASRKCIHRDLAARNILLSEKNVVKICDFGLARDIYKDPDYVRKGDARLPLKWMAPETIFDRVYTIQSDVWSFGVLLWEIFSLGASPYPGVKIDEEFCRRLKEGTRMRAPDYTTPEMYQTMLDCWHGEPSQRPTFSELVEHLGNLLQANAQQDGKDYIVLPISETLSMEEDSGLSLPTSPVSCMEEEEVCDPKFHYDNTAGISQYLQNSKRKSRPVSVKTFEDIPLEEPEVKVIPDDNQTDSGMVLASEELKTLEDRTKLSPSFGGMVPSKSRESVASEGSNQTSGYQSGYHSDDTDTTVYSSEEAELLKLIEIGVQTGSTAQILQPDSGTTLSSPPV

IC50 [2]: 20 to 50 nM
Compound: Clc1ccc(Nc2nnc(OCc3ccncc3)c3sccc23)cc1 [Example 8, 4-(4-chlorophenylamino)-7-(4-pyridylmethoxy)thieno-[2,3-d]pyridazine]
inhibition of total hemoglobin content of the Matrigel samples ([1]; 100 mg/kg po sid): > 60% | inhibition of total hemoglobin content of the Matrigel samples ([1]; 300 mg/kg po sid): > 60%
